Results on 20 compounds are retold here after patent publication US20260013501A1, “HERBICIDAL DERIVATIVES” (SYNGENTA CROP PROTECTION AG, priority 2022, published 2026).

Assay type in all cases: in vivo
Common to all, as to settings: evaluated after 13 days

Assay [1] relates to Zea mays (ZEAMX). Briefly: Pre-emergence Test (Table B1), ZEAMX.
Assay [2] concerns Amaranthus palmeri (AMAPA). Briefly: Pre-emergence Test (Table B1), AMAPA.
For assay [3], the system named is Zea mays (ZEAMX). Nature of the assay: Post-emergence Test (Table B2), ZEAMX. On the set-up: key: 5-point damage scale: 5=81-100%, 4=61-80%, 3=41-60%, 2=21-40%, 1=0-20%. The protocol:
Seeds of a variety of test species are sown in standard soil in pots (Ipomoea hederacea (IPOHE), Zea mays (ZEAMX), Echinochloa crus-galli (ECHCG), Amaranthus palmeri (AMAPA), (Amaranthus retoflexus (AMARE), and (Setaria faberi (SETFA)). After 8 days cultivation under controlled conditions in a glasshouse (at 24° C./16° C., day/night; 14 hours light; 65% humidity), the plants are sprayed with an aqueous spray solution derived from the formulation of the technical active ingredient in acetone/water (50:50) solution containing 0.5% Tween 20 (polyoxyethelyene sorbitan monolaurate, CAS RN 9005-64-5). Rate of application is shown in g/ha in the tables below. The test plants are then grown in a glasshouse under controlled conditions in a glasshouse (at 24° C./16° C., day/night; 14 hours light; 65% humidity) and watered twice daily. After 13 days the test is evaluated for the percentage damage caused to the plant. The biological activities are shown in the following table on a five-point scale (5=81-100%; 4=61-80%; 3=41-60%; 2=21-40%; 1=0-20%; -=not tested).

In assay [4] the test system is Amaranthus retoflexus (AMARE). Nature of the assay: Pre-emergence Test (Table B1), AMARE.

As to `CCn1c(Cc2ccc(OC)cc2C(F)(F)F)cc(=O)c(C(=O)O)c1-c1ccc(Cl)c(Cl)c1` [Compound 65, 2-(3,4-dichlorophenyl)-1-ethyl-6-[[4-methoxy-2-(trifluoromethyl)phenyl]methyl]-4-oxo-pyridine-3-carboxylic acid], the “Pre-emergence Test, percentage damage caused to the plant (five-point scale), ZEAMX” value in assay [1] (Rate 1000 g/Ha) came to 0.

Regarding `CCn1c(Cc2cc(C(F)F)ccn2)cc(=O)c(C(=O)O)c1-c1ccc(Cl)c(Cl)c1` [Compound 115, 2-(3,4-dichlorophenyl)-6-[[4-(difluoromethyl)-2-pyridyl]methyl]-1-ethyl-4-oxo-pyridine-3-carboxylic acid], the “Pre-emergence Test, percentage damage caused to the plant (five-point scale), ZEAMX” value in assay [1] (Rate 250 g/Ha) was determined as 0.

As to `CCn1c(Cc2ccc(OC)nn2)cc(=O)c(C(=O)O)c1-c1ccc(Cl)c(Cl)c1` [Compound 133, 2-(3,4-dichlorophenyl)-1-ethyl-6-[(6-methoxypyridazin-3-yl)methyl]-4-oxo-pyridine-3-carboxylic acid], in assay [1] (Rate 250 g/Ha), the “Pre-emergence Test, percentage damage caused to the plant (five-point scale), ZEAMX” value turned out to be 0.

Consider `CCn1c(Cc2cccc(C(C)F)n2)cc(=O)c(C(=O)O)c1-c1ccc(Cl)c(Cl)c1` (stereo not shown) [Compound 147, 2-(3,4-dichlorophenyl)-1-ethyl-6-[[6-(1-fluoroethyl)-2-pyridyl]methyl]-4-oxo-pyridine-3-carboxylic acid], for which, in assay [2] (Rate 250 g/Ha), the “Pre-emergence Test, percentage damage caused to the plant (five-point scale), AMAPA” value was 0.

In the case of `CCn1c(Cc2cccc(Cl)c2)cc(=O)c(C(=O)O)c1-c1ccc(Cl)c(Cl)c1` [Compound 1, 6-[(3-chlorophenyl)methyl]-2-(3,4-dichlorophenyl)-1-ethyl-4-oxo-pyridine-3-carboxylic acid], the “percentage damage caused to the plant, ZEAMX” value in assay [3] (rate 1000 g/Ha) amounted to 0.

Take `CCn1c(Cc2ccc(Cl)nc2)cc(=O)c(C(=O)O)c1-c1ccc(Cl)c(Cl)c1` [Compound 129, 6-[(6-chloro-3-pyridyl)methyl]-2-(3,4-dichlorophenyl)-1-ethyl-4-oxo-pyridine-3-carboxylic acid]: the “Pre-emergence Test, percentage damage caused to the plant (five-point scale), AMAPA” value in assay [2] (Rate 250 g/Ha) is recorded as 0. Further, in assay [3] (rate 250 g/Ha), the “percentage damage caused to the plant, ZEAMX” value is 0.

With `CCn1c(Cc2ccn(CC(C)C)n2)cc(=O)c(C(=O)O)c1-c1ccc(Cl)c(Cl)c1` [Compound 121, 2-(3,4-dichlorophenyl)-1-ethyl-6-[(1-isobutylpyrazol-3-yl)methyl]-4-oxo-pyridine-3-carboxylic acid], the “Pre-emergence Test, percentage damage caused to the plant (five-point scale), ZEAMX” value in assay [1] (Rate 250 g/Ha) turned out to be 0.

`CCn1c(Cc2cccc(Br)n2)cc(=O)c(C(=O)O)c1-c1ccc(Cl)c(Cl)c1` [Compound 138, 6-[(6-bromo-2-pyridyl)methyl]-2-(3,4-dichlorophenyl)-1-ethyl-4-oxo-pyridine-3-carboylic acid]: the “Pre-emergence Test, percentage damage caused to the plant (five-point scale), ZEAMX” value in assay [1] (Rate 250 g/Ha) worked out at 0.

On to `CCn1c(Cc2cccc(OC(F)(F)F)c2)cc(=O)c(C(=O)O)c1-c1ccc(Cl)c(Cl)c1` [Compound 30, 2-(3,4-dichlorophenyl)-1-ethyl-4-oxo-6-[[3-(trifluoromethoxy)phenyl]methyl]pyridine-3-carboxylic acid], for which, in assay [3] (rate 1000 g/Ha), the “percentage damage caused to the plant, ZEAMX” value stood at 0.

In the case of `CCn1c(Cc2cc(Cl)ccn2)cc(=O)c(C(=O)O)c1-c1ccc(Cl)c(Cl)c1` [Compound 117, 6-[(4-chloro-2-pyridyl)methyl]-2-(3,4-dichlorophenyl)-1-ethyl-4-oxo-pyridine-3-carboxylic acid], the “Pre-emergence Test, percentage damage caused to the plant (five-point scale), ZEAMX” value in assay [1] (Rate 62.5 g/Ha) came to 0. For the same compound, the “percentage damage caused to the plant, ZEAMX” value in assay [3] (rate 62.5 g/Ha) is reported as 0.

As for `CCn1c(Cc2ccnc(F)c2)cc(=O)c(C(=O)O)c1-c1ccc(Cl)c(Cl)c1` [Compound 44, 2-(3,4-dichlorophenyl)-1-ethyl-6-[(2-fluoro-4-pyridyl)methyl]-4-oxo-pyridine-3-carboxylic acid], the “Pre-emergence Test, percentage damage caused to the plant (five-point scale), ZEAMX” value in assay [1] (Rate 250 g/Ha) was 0.

On to `CCn1c(Cc2nccs2)cc(=O)c(C(=O)O)c1-c1ccc(Cl)c(Cl)c1` [Compound 19, 2-(3,4-dichlorophenyl)-1-ethyl-4-oxo-6-(thiazol-2-ylmethyl)pyridine-3-carboxylic acid], for which the “Pre-emergence Test, percentage damage caused to the plant (five-point scale), AMAPA” value in assay [2] (Rate 1000 g/Ha) came out at 0. Also, the “Pre-emergence Test, percentage damage caused to the plant (five-point scale), AMARE” value in assay [4] (Rate 1000 g/Ha) amounted to 0.

As to `CCn1c(Cc2nc(Cl)ccc2COC)cc(=O)c(C(=O)O)c1-c1ccc(Cl)c(Cl)c1` [Compound 105, 6-[[6-chloro-3-(methoxymethyl)-2-pyridyl]methyl]-2-(3,4-dichlorophenyl)-1-ethyl-4-oxo-pyridine-3-carboxylic acid], the “Pre-emergence Test, percentage damage caused to the plant (five-point scale), AMAPA” value in assay [2] (Rate 250 g/Ha) is given as 0. Moreover, the “Pre-emergence Test, percentage damage caused to the plant (five-point scale), AMARE” value in assay [4] (Rate 250 g/Ha) was 0.

Take `CCn1c(Cc2ccn(C3CC3)n2)cc(=O)c(C(=O)O)c1-c1ccc(Cl)c(Cl)c1` [Compound 54, 6-[(1-cyclopropylpyrazol-3-yl)methyl]-2-(3,4-dichlorophenyl)-1-ethyl-4-oxo-pyridine-3-carboxylic acid]: the “Pre-emergence Test, percentage damage caused to the plant (five-point scale), AMAPA” value in assay [2] (Rate 1000 g/Ha) was 0. The “Pre-emergence Test, percentage damage caused to the plant (five-point scale), AMARE” value in assay [4] (Rate 1000 g/Ha) is given as 0.

With `CCn1c(Cc2cccc(C(F)(F)F)n2)cc(=O)c(C(=O)O)c1-c1ccc(Cl)c(Cl)c1` [Compound 39, 2-(3,4-dichlorophenyl)-1-ethyl-4-oxo-6-[[6-(trifluoromethyl)-2-pyridyl]methyl]pyridine-3-carboxylic acid], in assay [2] (Rate 1000 g/Ha), the “Pre-emergence Test, percentage damage caused to the plant (five-point scale), AMAPA” value came out at 0.

In the case of `CCn1c(Cc2ccon2)cc(=O)c(C(=O)O)c1-c1ccc(Cl)c(Cl)c1` [Compound 149, 2-(3,4-dichlorophenyl)-1-ethyl-6-(isoxazol-3-ylmethyl)-4-oxo-pyridine-3-carboxylic acid], in assay [1] (Rate 250 g/Ha), the “Pre-emergence Test, percentage damage caused to the plant (five-point scale), ZEAMX” value was 0. The “percentage damage caused to the plant, ZEAMX” value in assay [3] (rate 250 g/Ha) is 0.

Turning to `CCn1c(Cc2cccc(C#N)n2)cc(=O)c(C(=O)O)c1-c1ccc(Cl)c(Cl)c1` [Compound 57, 6-[(6-cyano-2-pyridyl)methyl]-2-(3,4-dichlorophenyl)-1-ethyl-4-oxo-pyridine-3-carboxylic acid], the “percentage damage caused to the plant, ZEAMX” value in assay [3] (rate 1000 g/Ha) worked out at 0.

Take `CCn1c(Cc2ncc(Cl)cn2)cc(=O)c(C(=O)O)c1-c1ccc(Cl)c(Cl)c1` [Compound 4, 6-[(5-chloropyrimidin-2-yl)methyl]-2-(3,4-dichlorophenyl)-1-ethyl-4-oxo-pyridine-3-carboxylic acid]: the “Pre-emergence Test, percentage damage caused to the plant (five-point scale), AMAPA” value in assay [2] (Rate 1000 g/Ha) turned out to be 0.

Turning to `CCn1c(Cc2ccnc(C(F)(F)F)n2)cc(=O)c(C(=O)O)c1-c1ccc(Cl)c(Cl)c1` [Compound 141, 2-(3,4-dichlorophenyl)-1-ethyl-4-oxo-6-[[2-(trifluoromethyl)pyrimidin-4-yl]methyl]pyridine-3-carboxylic acid], the “Pre-emergence Test, percentage damage caused to the plant (five-point scale), ZEAMX” value in assay [1] (Rate 250 g/Ha) was found to be 0. The “Pre-emergence Test, percentage damage caused to the plant (five-point scale), AMAPA” value in assay [2] (Rate 250 g/Ha) is 0.

Regarding `CCn1c(Cc2ccc(C)c(Cl)n2)cc(=O)c(C(=O)O)c1-c1ccc(Cl)c(Cl)c1` [Compound 97, 6-[(6-chloro-5-methyl-2-pyridiyl)methyl]-2-(3,4-dichlorophenyl)-1-ethyl-4-oxo-pyridine-3-carboxylic acid], in assay [2] (Rate 1000 g/Ha), the “Pre-emergence Test, percentage damage caused to the plant (five-point scale), AMAPA” value was 0. Besides, the “Pre-emergence Test, percentage damage caused to the plant (five-point scale), AMARE” value in assay [4] (Rate 1000 g/Ha) came to 0.
